# Values of other authors, collected in patent US10611818B2, “MHC multimers in tuberculosis diagnostics, vaccine and therapeutics” (priority 2007, dated 2020).
# System: T2 cells
# Conditions: CD8 T-cell clones 8, 9, 10, 11 and 12
sequence,measurement,value
"GLQHWVPEL [BA4697-105, irrelevant peptide used to load T2 target cells]",lysis of T2 cells pulsed with peptide,without killing
